Values quoted from earlier work, collected in patent publication US20060122095A1, “Mucus formulation for mucosal surfaces and uses thereof” (priority 2002, published 2006).
Entries after “also recorded” stand apart in the source; their conditions may differ.

Key:
HIV-1 [1] = settings: previous evaluations of UC-781 formulations
HIV-1 [2] = tested on: HIV-1
HIV-1 [3] = settings: after complete washing away of unbound drug
[4] = multiple routes of administration, different species of animals
[5] = tested on: different cell types in culture; settings: even at extremely high concentrations

CC(C)=CCOc1cc(NC(=S)c2ccoc2C)ccc1Cl [UC-781, N-[4-chloro-3-(3-methyl-2-butenyloxy)phenyl]]
activity in explant model (HIV-1 [1]): remained active
effectiveness against strains of HIV-1 that encode known NNRTI resistance mutations (HIV-1 [2]; compared with wild type isolates): equally effective
HIV-1 inhibition effect, inactivating concentration (HIV-1 [2]; primary wild type isolates of clades A through G, in vitro): nanomolar range; also recorded: nanomolar concentrations
resistance of pre-treated cells to infection (memory effect) (HIV-1 [3]): remained resistant to infection for several days
bioavailability [4]: poor bioavailability
toxic effect on cells in culture [5]: no toxic effect
solubility in water: limited solubility in water
